Like-named read-outs stand apart in the source and are kept apart here.
Columns and labels:
[1] = molecular target: GDP-bound KRAS protein (aa 1-169), G12D and C118A; SOS-mediated nucleotide exchange (Homo sapiens (Human), UniProt P01116, C118A/G12D); assay: KRAS G12D Coupled Nucleotide Exchange Assay; format: biochemical; conditions: 2 h compound pre-incubation, GTP, cRAF AlphaScreen
In short: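 Read-out was AlphaScreen, with IC50 derived by 4-parameter logistic fitting. Before that, SOS (aa 564-1049) and GTP drove 30 min exchange on His-tagged KRAS 1-169 carrying G12D and C118A, following a 2 h compound preincubation in 25 mM HEPES pH 7.4, 10 mM MgCl2, 0.01% Triton X-100.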

[2] = test system: Phosphorylation of ERK1/2 in AsPC-1 cells; assay: Phospho-ERK1/2 MSD Assay; format: cell-based
In short: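 AsPC-1 cells in 10% FBS RPMI 1640 were treated with a compound dose titration for 2 h at 37° C, then lysed in RIPA buffer with protease and phosphatase inhibitors. Phospho-ERK1/2 was measured by MSD whole-cell lysate immunoassay, and IC50 was derived by 4-parameter logistic fit.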

[3] = molecular target: His-tagged KRAS G12D protein (Homo sapiens (Human), UniProt P01116, G12D); assay: KRAS G12D TR-FRET Assay; format: binding; conditions: biotinylated KRPep-2d, 10 μM GDP
Sequence of His-tagged KRAS G12D protein (P01116-2 other isoform, or with tags, fused parts or gaps G12D): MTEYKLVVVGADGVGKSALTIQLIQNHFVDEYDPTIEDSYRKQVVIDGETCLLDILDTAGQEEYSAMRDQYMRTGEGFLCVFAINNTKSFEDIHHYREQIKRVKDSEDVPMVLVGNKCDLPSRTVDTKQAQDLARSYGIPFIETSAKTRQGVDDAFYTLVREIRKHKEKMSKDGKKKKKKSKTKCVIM
In short: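 His-KRAS G12D (20 nM working solution) preincubated with compound 30 min at rt in HEPES pH 7.4 buffer with 10 μM GDP, then biotinylated KRPep-2d added for 1 h. Eu-anti-His/streptavidin-d2 TR-FRET 665/615 ratio; IC50 from 4-parameter logistic fit.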

[4] = Homo sapiens, ASPC1, 2 h, read-out: 2 h p-ERK (AsPC-1 cells), IC50 (μM), AsPC-1 cells, 2 h compound treatment

Sequence of GDP-bound KRAS protein (aa 1-169), G12D and C118A; SOS-mediated nucleotide exchange (P01116 other isoform, or with tags, fused parts or gaps G12D/C118A): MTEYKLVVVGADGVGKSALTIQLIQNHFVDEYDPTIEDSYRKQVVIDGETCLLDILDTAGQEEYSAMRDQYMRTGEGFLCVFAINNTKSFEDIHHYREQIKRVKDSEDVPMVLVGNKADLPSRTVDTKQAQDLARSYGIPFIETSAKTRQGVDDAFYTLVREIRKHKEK

| IC50 [1] [nM] | IC50 [2, 4] [µM] | IC50 [3] [nM] | IC50 ([2]; read-out: 2 h p-ERK (AsPC-1 cells), IC50, AsPC-1 cells, 2 h compound treatment) [µM] | Compound |
| --- | --- | --- | --- | --- |
| 4 | 0.296 | 3 | – | N#Cc1c(N)sc2c(F)ccc(-c3c(Cl)cc4c(N5CCCCC(S(N)(=O)=O)C5)nc(OC[C@@]56CCCN5C[C@H](F)C6)nc4c3F)c12 (stereo partly drawn) [Example 15, 1-(7-(2-Amino-3-cyano-7-fluorobenzo[b]thiophen-4-yl)-6-chloro-8-fluoro-2-(((2R,7aS)-2-fluorotetrahydro-1H-pyrrolizin-7a(5H)-yl)methoxy)quinazolin-4-yl)azepane-3-sulfonamide] |
| 7 | 0.292 | 8 | – | CC1(O)COCCN(c2nc(OCC34CCCN3CC(F)(F)C4)nc3c(F)c(-c4ccc(F)c5sc(N)c(C#N)c45)c(Cl)cc23)C1 (single isomer, unassigned) [Example 60, 2-Amino-4-(6-chloro-2-((2,2-difluorotetrahydro-1H-pyrrolizin-7a(5H)-yl)methoxy)-8-fluoro-4-(6-hydroxy-6-methyl-1,4-oxazepan-4-yl)quinazolin-7-yl)-7-fluorobenzo[b] thiophene-3-carbonitrile] |
| 5 | – | 6 | 0.185 | CCC1(O)COCCN(c2nc(OC[C@@]34CCCN3C[C@H](F)C4)nc3c(F)c(-c4ccc(F)c5sc(N)c(C#N)c45)c(Cl)cc23)C1 (single isomer, unassigned) [Example 45] |
| 4 | 0.093 | 4 | – | N#Cc1c(N)sc2c(F)ccc(-c3c(Cl)cc4c(N5CCOCC(F)(F)C5)nc(OC[C@@]56CCCN5C[C@H](F)C6)nc4c3F)c12 [Example 34, 2-Amino-4-(6-chloro-4-(6,6-difluoro-1,4-oxazepan-4-yl)-8-fluoro-2-(((2R,7aS)-2-fluorotetrahydro-1H-pyrrolizin-7a(5H)-yl)methoxy)quinazolin-7-yl)-7-fluorobenzo[b] thiophone-3-carbonitrile] |
| 4 | 0.097 | 3 | – | N#Cc1c(N)sc2c(F)ccc(-c3c(Cl)cc4c(N5CCCC[C@H](O)C5)nc(OC[C@@]56CCCN5C[C@H](F)C6)nc4c3F)c12 [Example 5, 2-Amino-4-(6-chloro-8-fluoro-2-(((2R,7a.S)-2-fluorotetrahydro-1H-pyrrolizin-7a(5H)-yl)methoxy)-4-((S)-3-hydroxyazepan-1-yl)quinazolin-7-yl)-7-fluorobenzo[b] thiophene-3-carbonitrile] |
| 21 | 3.06 | 45 | – | COC[C@@H]1CCCN1c1nc(OC[C@@]23CCCN2C[C@H](F)C3)nc2c(F)c(-c3ccc(F)c4sc(N)c(C#N)c34)c(Cl)cc12 [Example 48, 2-Amino-4-(6-chloro-8-fluoro-2-(((2R,7a.S)-2-fluorotetrahydro-1H-pyrrolizin-7a(5H)-yl)methoxy)-4-((S)-2-(methoxymethyl)pyrrolidin-1-yl)quinazolin-7-yl)-7-fluorobenzo[b] thiophene-3-carbonitrile] |
| 26 | 1.68 | 19 | – | N#Cc1c(N)sc2c(F)ccc(-c3c(Cl)cc4c(N5CCCC6(CC(=O)C6)C5)nc(OC[C@@]56CCCN5C[C@H](F)C6)nc4c3F)c12 [Example 40, 2-Amino-4-(6-chloro-8-fluoro-2-(((2R,7aS)-2-fluorotetrahydro-1H-pyrrolizin-7a(5H)-yl)methoxy)-4-(2-oxo-6-azaspiro[3.5]nonan-6-yl)quinazolin-7-yl)-7-fluorobenzo[b] thiophene-3-carbonitrile] |
| 8 | 0.102 | 5 | – | N#Cc1c(N)sc2c(F)ccc(-c3c(Cl)cc4c(N5CCCOCC5)nc(OC[C@@]56CCCN5C[C@H](F)C6)nc4c3F)c12 [Example 55, 2-Amino-4-(6-chloro-8-fluoro-2-(((2R,7aS)-2-fluorotetrahydro-1H-pyrrolizin-7a(5H)-yl)methoxy)-4-(1,4-oxazepan-4-yl)quinazolin-7-yl)-7-fluorobenzo[b]thiophene-3-carbonitrile] |
| 2 | 0.043 | 2 | – | N#Cc1c(N)sc2c(F)ccc(-c3c(Cl)cc4c(N5CCCCC(F)C5)nc(OC[C@@]56CCCN5C[C@H](F)C6)nc4c3F)c12 (stereo partly drawn) [Example 27, 2-Amino-4-(6-chloro-8-fluoro-4-(3-fluoroazepan-1-yl)-2-(((2R,7aS)-2-fluorotetrahydro-1H-pyrrolizin-7a(5H)-yl)methoxy)quinazolin-7-yl)-7-fluorobenzo[b] thiophene-3-carbonitrile] |
| 7 | 0.601 | 6 | – | N#Cc1c(N)sc2c(F)ccc(-c3c(Cl)cc4c(N5CCCCC5)nc(OC[C@@]56CCCN5C[C@H](F)C6)nc4c3F)c12 [Example 26, 2-Amino-4-(6-chloro-8-fluoro-2-(((2R,7aS)-2-fluorotetrahydro-1H-pyrrolizin-7a(5H)-yl)methoxy)-4-(piperidin-1-yl)quinazolin-7-yl)-7-fluorobenzo[6] thiophene-3-carbonitrile] |
| 5 | 0.097 | 3 | – | CC1(O)CCCCN(c2nc(OC[C@@]34CCCN3C[C@H](F)C4)nc3c(F)c(-c4ccc(F)c5sc(N)c(C#N)c45)c(Cl)cc23)C1 (single isomer, unassigned) [Example 28] |
| 2 | 0.089 | 2 | – | N#Cc1c(N)sc2c(F)ccc(-c3c(Cl)cc4c(N5CCCCOCC5)nc(OC[C@@]56CCCN5C[C@H](F)C6)nc4c3F)c12 [Example 51, 2-Amino-4-(6-chloro-8-fluoro-2-(((2R,7aS)-2-fluorotetrahydro-1H-pyrrolizin-7a(5H)-yl)methoxy)-4-(1,4-oxazocan-4-yl)quinazolin-7-yl)-7-fluorobenzo[b] thiophene-3-carbonitrile] |
| 19 | 0.845 | 34 | – | N#Cc1c(N)sc2c(F)ccc(-c3c(Cl)cc4c(C5=CCCOC5)nc(OC[C@@]56CCCN5C[C@H](F)C6)nc4c3F)c12 [Example 70, 2-Amino-4-(6-chloro-4-(5,6-dihydro-2H-pyran-3-yl)-8-fluoro-2-(((2R,7aS)-2-fluorotetrahydro-1H-pyrrolizin-7a(5H)-yl)methoxy)quinazolin-7-yl)-7-fluorobenzo[b]thiophene-3-carbonitrile bis(2,2,2-trifluoroacetate)] |
| 11 | 0.283 | 10 | – | C[C@]1(O)CCCN(c2nc(OC[C@@]34CCCN3C[C@H](F)C4)nc3c(F)c(-c4ccc(F)c5sc(N)c(C#N)c45)c(Cl)cc23)C1 [Example 39, 2-Amino-4-(6-chloro-8-fluoro-2-(((2R,7aS)-2-fluorotetrahydro-1H-pyrrolizin-7a(5H)-yl)methoxy)-4-((S)-3-hydroxy-3-methylpiperidin-1-yl)quinazolin-7-yl)-7-fluorobenzo[b] thiophene-3-carbonitrile] |
| 7 | 0.677 | 7 | – | CC1(C(N)=O)CCCN(c2nc(OC[C@@]34CCCN3C[C@H](F)C4)nc3c(F)c(-c4ccc(F)c5sc(N)c(C#N)c45)c(Cl)cc23)C1 (stereo partly drawn) [Example 11, 1-(7-(2-Amino-3-cyano-7-fluorobenzo[b]thiophen-4-yl)-6-chloro-8-fluoro-2-(((2R,7aS)-2-fluorotetrahydro-1H-pyrrolizin1 7a(5H)-yl)methoxy)quinazolin-4-yl)-3-methylpiperidine-3-carboxamide] |
| 3 | 0.492 | 3 | – | N#Cc1c(N)sc2c(F)ccc(-c3c(Cl)cc4c(N5CCCS(=O)(=O)CC5)nc(OC[C@@]56CCCN5C[C@H](F)C6)nc4c3F)c12 [Example 25, 2-Amino-4-(6-chloro-4-(1,1-dioxido-1,4-thiazepan-4-yl)-8-fluoro-2-(((2R,7aS)-2-fluorotetrahydro-1H-pyrrolizin-7a(5H)-yl)methoxy)quinazolin-7-yl)-7-fluorobenzo[b] thiophene-3-carbonitrile] |
| 26 | 1.02 | 22 | – | N#Cc1c(N)sc2c(F)ccc(-c3c(Cl)cc4c(N5CCCC6(CCO6)C5)nc(OC[C@@]56CCCN5C[C@H](F)C6)nc4c3F)c12 (stereo partly drawn) [Example 20, 2-Amino-4-(6-chloro-8-fluoro-2-(((2R,7aS)-2-fluorotetrahydro-1H-pyrrolizin-7a(5H)-yl)methoxy)-4-(1-oxa-6-azaspiro[3.5]nonan-6-yl)quinazolin-7-yl)-7-fluorobenzo[b] thiophene-3-carbonitrile] |
| 7 | 1.11 | 17 | – | C[C@@]1(CO)CCCN1c1nc(OC[C@@]23CCCN2C[C@H](F)C3)nc2c(F)c(-c3ccc(F)c4sc(N)c(C#N)c34)c(Cl)cc12 [Example 47, 2-Amino-4-(6-chloro-8-fluoro-2-(((2R,7aS)-2-fluorotetrahydro-1H-pyrrolizin-7a(5H)-yl)methoxy)-4-((S)-2-(hydroxymethyl)-2-methylpyrrolidin-1-yl)quinazolin-7-yl)-7-fluorobenzo[6] thiophene-3-carbonitrile] |

— patent US20250163064A1, “QUINAZOLINE COMPOUNDS AND USES THEREOF AS INHIBITORS OF MUTANT KRAS PROTEINS” (AMGEN INC., priority 2022, published 2025)
